Assays:
Arabidopsis [1] = assay: Paraquat tolerance assay, dose effect of paraquat on growth; format: in vivo
Protocol: In light-exposed plants, paraquat accepts electrons from photosystem I and transfers them to molecular oxygen. In this manner, destructive reactive oxygen species are produced. A range of paraquat concentrations were tested in Arabidopsis. […] Compared to wild-type plants, mutant plants have larger size and less-bleached leaves under these conditions. A quantitative assay based on leaf area and color (similar to low N plate analysis) can be easily integrated into this screen.
The dose effect of paraquat on Arabidopsis growth was determined. […] Therefore this concentration was used for paraquat resistance assay. […] Tsu can serve as a positive control for this assay.
Seeds were surface sterilized and stratified for 96 hrs. 18 seeds for each tested line and Col-0 were inoculated in one plate, then cultured in a growth chamber programmed for 16 h of light at 22° C. temperature, 150 μE light intensity and 50% relative humidity. Growth phenotype was scored based on leaf size and color at 7-day-after inoculation.
Seeds were inoculated on a square paraquat plate. 18 seeds of test lines and 18 seeds of Col-0 were evenly put on the plate side by side. Plates were then cultured in the chambers set at 16 h of light at 22° C. temperature, 150 μE light intensity and 50% relative humidity.

Arabidopsis [2] = assay: Kill curves for individual osmotic stress agents; format: in vivo; conditions: kill curve experiments, each stress agent individually in the media
From the text: The standardization of growth conditions and generation of kill curves for various osmotic stress agents individually was done before the development of quad stress assay conditions. […] As there were four stress agents being used together, a quarter of each together in a solution would denote 100% stress or an osmotic pressure of 1.23 MPa. Therefore the following concentrations of each component were used in “100% quad media”.
Assay Conditions: Seeds were surface sterilized and stratified for 48 hrs. About 100 seeds were inoculated in one plate and cultured in a growth chamber programmed for 16 h of light at 22° C. temperature and 50% relative humidity. Germination was scored as the emergence of radicle. Assay Plan: A 6-day assay and an extended 10-day assay were done to test the seeds from the 48 transgenic Arabidopsis lines for osmotic stress tolerance. • Day 0—Surface sterilized seeds of different drought leads and stratify. • Day 2—Inoculated onto quad media. • Day 4—Counted for germination (48 hrs). • Day 5—Counted for germination (72 hrs)/Take pictures or Scan plates from 48 hrs to 96 hrs. • Day 6—Counted for germination (96 hrs). • For the extended 10-day assay, germination was scored from 48 hrs to 96 hrs. On day 7, 8, 9 and 10, the emerged seedlings were checked for greenness and four leaf stage. Preparation of Media • Germination medium (GM or 0% quad media) for 1 liter: […]

Structure (SMILES) | effect on Col-0 plants (Arabidopsis [1]; 0.03 μM paraquat) | concentration that greatly inhibited Arabidopsis growth (Arabidopsis [1]; 7-day growth on plates) [µM] | concentration at which the effect on growth can be detected (Arabidopsis [1]; in vivo) [µM] | concentration giving dose-dependent growth inhibition and leaf bleach (Arabidopsis [1]; range of paraquat concentrations tested in Arabidopsis) [µM] | lethal concentration (Arabidopsis [2]) [mM]
C[n+]1ccc(-c2cc[n+](C)cc2)cc1 [paraquat] | plants died one-week-after germination | 0.03 | 0.01 | 0.01 to 0.1 | –
OC[C@@H](O)[C@@H](O)[C@H](O)[C@@H](O)CO [sorbitol] | – | – | – | – | 500
[Cl-].[Na+] [NaCl, sodium chloride] | – | – | – | – | 150
OC[C@@H](O)[C@@H](O)[C@H](O)[C@H](O)CO [mannitol] | – | – | – | – | 500
